Test results: ChEMBL document CHEMBL1133757, “Reporter affinity labels: an o-phthalaldehyde derivative of beta-naltrexamine as a fluorogenic ligand for opioid receptors” (J Med Chem, 2000)

Assays:
[1] = target: Kappa-type opioid receptor (Homo sapiens, UniProt P41145); test: Inhibition of [3H]diprenorphine binding to Opioid receptor kappa 1
[2] = target: Delta-type opioid receptor (Homo sapiens, UniProt P41143); test: Inhibition of [3H]- diprenorphine binding to Opioid receptor delta 1
Mu-type opioid receptor = Mu-type opioid receptor (Homo sapiens, UniProt P35372); test: Inhibition of [3H]- diprenorphine binding to Opioid receptor mu 1 (83 fmol/mg protein) stably expressed in membranes from CHO cells; assay type: cell membranes
Chain of Mu-type opioid receptor (P35372 whole entry): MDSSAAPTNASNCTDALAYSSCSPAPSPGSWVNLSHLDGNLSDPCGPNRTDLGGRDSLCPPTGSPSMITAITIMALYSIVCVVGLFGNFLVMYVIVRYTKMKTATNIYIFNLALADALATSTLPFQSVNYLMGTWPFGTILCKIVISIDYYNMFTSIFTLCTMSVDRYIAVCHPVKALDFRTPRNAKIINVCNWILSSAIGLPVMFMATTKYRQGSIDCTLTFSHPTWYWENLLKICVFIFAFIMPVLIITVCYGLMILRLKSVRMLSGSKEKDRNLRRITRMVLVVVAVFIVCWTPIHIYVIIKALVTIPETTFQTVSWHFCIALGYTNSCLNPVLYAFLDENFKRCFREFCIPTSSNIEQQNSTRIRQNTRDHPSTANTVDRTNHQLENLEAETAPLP

Chain of Delta-type opioid receptor (P41143 whole entry): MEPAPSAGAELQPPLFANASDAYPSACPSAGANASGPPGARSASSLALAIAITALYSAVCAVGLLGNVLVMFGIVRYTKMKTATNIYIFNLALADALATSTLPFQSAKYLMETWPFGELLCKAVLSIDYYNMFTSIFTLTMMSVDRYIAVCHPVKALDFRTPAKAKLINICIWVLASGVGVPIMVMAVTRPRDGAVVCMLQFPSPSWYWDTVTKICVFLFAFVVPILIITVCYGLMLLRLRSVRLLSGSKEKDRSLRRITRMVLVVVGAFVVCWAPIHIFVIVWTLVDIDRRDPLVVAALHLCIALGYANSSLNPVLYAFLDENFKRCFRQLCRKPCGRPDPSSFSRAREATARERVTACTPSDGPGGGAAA
Chain of Kappa-type opioid receptor (P41145 whole entry): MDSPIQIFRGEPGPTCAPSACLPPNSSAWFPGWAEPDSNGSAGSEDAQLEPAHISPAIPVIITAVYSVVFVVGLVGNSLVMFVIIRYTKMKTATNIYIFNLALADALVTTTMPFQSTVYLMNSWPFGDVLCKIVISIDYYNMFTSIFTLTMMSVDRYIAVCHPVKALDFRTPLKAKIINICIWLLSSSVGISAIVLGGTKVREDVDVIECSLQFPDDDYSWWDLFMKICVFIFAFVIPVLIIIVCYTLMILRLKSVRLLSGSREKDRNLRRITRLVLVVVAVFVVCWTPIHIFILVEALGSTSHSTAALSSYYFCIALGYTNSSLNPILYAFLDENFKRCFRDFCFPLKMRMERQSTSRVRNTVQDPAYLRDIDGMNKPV

Compound `O=Cc1ccc(C(=O)NCC(=O)N[C@@H]2CC[C@@]3(O)[C@H]4Cc5ccc(O)c6c5C3(CCN4CC3CC3)C2O6)cc1C=O` (stereo partly drawn) has a Ki [1] of 700 pM, a Ki [2] of 2570 pM and a Ki (Mu-type opioid receptor) of 450 pM.
